In US20240010610A1, “COMPOUNDS FOR TREATING SEGMENTAL PROGEROID SYNDROMES” (Progelife, priority 2020, published 2024):
Where two headings read alike, the source gives them in different places. Marks after values point to notes of the source that are not given here. Where a SMILES comes first, the peptide text is derived from it. The star is where a group is joined. Cbz = O=C(OCc1ccccc1)*

Legend:
progerin = test: Progerin expression by western blot, normalised to total protein (Revert protein stain); type: cell-based, human; conditions: T=72 hours, mean of n=3 unless footnoted; for Mean decrease of progerin expression relative to DMSO control: compounds tested at CV25, HGPS cells; for Mean change of progerin expression relative to DMSO control: compounds tested at CV75, HGPS cells, decrease (−) or increase
Experimental: All molecules were diluted in DMSO at 10 mM. […] Drug efficiency was evaluated in 6-well plates.
Total fibroblast proteins were extracted after 72 hours treatment in 100 μL of NP40 (Invitrogen) with 1× protease and phosphatase inhibitor cocktail (Life Technologies). Lysats were incubated on ice for 30 minutes, with vortexing at 10-minute intervals. Finally, they were sonicated four times (20 sec each) and then centrifuged at 13000 rpm for 10 minutes at 4° C.
Protein concentrations were determined with the BCA™ Protein Assay (Life Technologies).
Protein lysates were separated on Nupage Novex 4-12% Bis-Tris Midi precast gels (Life Technologies) and transferred to Immobilon-FL PVDF membranes (Millipore, Molsheim, France). Membranes were blocked for one hour in 1:1 diluted blocking buffer for near infrared fluorescent western blotting (Rockland, Le Perray, France). Blocked membranes were incubated with primary antibodies overnight at 4° C., following which they were washed and incubated with IR-Dye conjugated secondary antibodies for one hour at RT. Bound antibodies were detected and analyzed on an Odyssey imaging system (Li-COR Biosciences, Bad Homburg, Germany) according to the manufacturer's instructions. Revert Protein Stain (Li-COR Biosciences) was used as a total protein loading control in addition to two traditional protein loading control GAPDH and Actin. Progerin and SRSF1 levels were quantified and normalized by Revert staining using Image Studio Lite™ software developed by Li-COR.
The following antibodies were used in this study: rabbit monoclonal anti-lamin A/C (ab108922, 1/1000, Abcam, Amsterdam, Netherlands), rabbit monoclonal anti-SRSF1 (SF2) (ab129108, 1/1000, Abcam), mouse monoclonal anti-GAPDH (MAB374, 1/40000, Millipore, Molsheim, France) and mouse monoclonal anti-actin (MAB1501R, 1/10000, Millipore. Secondary antibodies conjugated with IR-Dye 800CW or 680 were used according to the manufacturer's instructions (926-32213 and 926-68072, 1/5000, Li-COR Biosciences).
(§1) Mean decrease of progerin expression (presented as a percentage of the concentration measured in DMSO control) with compounds tested at CV25, in HGPS cells at T=72 hours, determined by western blot analysis and normalised to the total amount of protein (Revert protein stain) (mean of n=3 (range)) is presented in the following Table 1:
as §1, with “change (decrease (−) or increase)” for “decrease”, “CV75,” for “CV25,”, “2: […]” for “1:”

HGPS fibroblast [1] = conditions: human, 72 h
Experimental: (§2) Fibroblasts from HGPS donors from passage 18 to 24 were cultured in DMEM low glucose (Life Technologies, Courtabœuf, France) containing 15% FBS (Life Technologies), 2 mM L-glutamine (Life Technologies) and 100 U/mL penicillin-streptomycin (Life Technologies) at 37° C. in a humidified atmosphere containing 5% CO2.
(§3) All molecules were diluted in DMSO at 10 mM. Concentrations from 100 μM to 0.0001 nM were used to test cell viability in 96-well plates. Drug efficiency was evaluated in 6-well plates.
(§4) Assays were carried out in 96-well microplates. After 72 hours of treatment, the cells were washed once with 100 μL DPBS (no calcium, no magnesium). Then 100 μl of PrestoBlue solution (Life Technologies) diluted at 10% in DPBS was added to each well. Plates were incubated at 37° C. for 30 minutes. The fluorescence intensity was measured by multiwell plate reader (Glomax microplate reader, Promega, Charbonnières les Bains, France) using green filter (Excitation 525 nm/emission 580-640 nm). Fluorescence intensities values were pasted in Prism Software (Graph Pad, San Diego, CA) to perform a dose response analysis. CV25 correspond to drug concentrations at which HGPS fibroblast cell viability was 25%. CV75 correspond to drug concentrations at which HGPS fibroblast cell viability was 75%.

HGPS fibroblast [2] = test: Cell viability and assessment of toxicity (PrestoBlue, dose response); conditions: 72 hours of treatment
Experimental: as §2, §3, §4

Row | SMILES | CV25 (HGPS fibroblast [1]) [µM] | CV75 (HGPS fibroblast [1]) [µM] | Mean decrease of progerin expression relative to DMSO control (progerin) | Mean change of progerin expression relative to DMSO control (progerin) | CV25 (HGPS fibroblast [2]; drug concentration at which HGPS fibroblast cell viability was 25%) [µM] | CV75 (HGPS fibroblast [2]; drug concentration at which HGPS fibroblast cell viability was 75%) [µM]
1 | CC(=O)N[C@@H](CC(C)C)C(=O)N[C@@H](CC(C)C)C(=O)N[C@H](C=O)CC(C)C [Compound 3] (Ac-Leu-Leu-Leu-aldehyde) | 1.800 | 0.720 | 71% | 0% | – | –
2 | CC(C)C[C@@H](C=O)NC(=O)[C@H](CC(C)C)NC(=O)[C@H](Cc1ccccc1)NC(=O)OCc1ccccc1 [Compound 4, Z-Phenylalanine-Leucine-Leucinal] (Cbz-Phe-Leu-Leu-aldehyde) | 0.402 | 0.133 | 70% | −12% | – | –
3 | CC(C)C[C@@H](C=O)NC(=O)[C@H](CC(C)C)NC(=O)[C@H](CC(C)C)NC(=O)OCc1ccccc1 [Compound 1, Z-Leu-Leu-Leucinal, reference compound] (Cbz-Leu-Leu-Leu-aldehyde) | – | – | 67* % | −3* % | 0.270 | 0.137
4 | CC(C)C[C@@H](C=O)NC(=O)[C@H](CC(C)C)NC(=O)[C@H](CC(C)C)NC(=O)Cc1cccc(CC(=O)N[C@@H](CC(C)C)C(=O)N[C@@H](CC(C)C)C(=O)N[C@H](C=O)CC(C)C)c1 [Compound 14] | 0.589 | 0.155 | 66% | −1% | – | –
5 | CC(C)C[C@@H](C=O)NC(=O)[C@H](CC(C)C)NC(=O)[C@H](CC(C)C)NC(=O)c1cc(Cl)ccc1Cl [Compound 12] | 0.063 | 0.001 | 61** % | −1** % | – | –

Now from value to compound, other results behind:

Row | CV25 (HGPS fibroblast [1]) [µM] | CV75 (HGPS fibroblast [1]) [µM] | SMILES | Mean decrease of progerin expression relative to DMSO control (progerin) | Mean change of progerin expression relative to DMSO control (progerin) | CV25 (HGPS fibroblast [2]; drug concentration at which HGPS fibroblast cell viability was 25%) [µM] | CV75 (HGPS fibroblast [2]; drug concentration at which HGPS fibroblast cell viability was 75%) [µM]
6 | 0.142 | 0.060 | CC(C)C[C@@H](C=O)NC(=O)[C@H](Cc1ccccc1)NC(=O)[C@H](CC(C)C)NC(=O)OCc1ccccc1 [Compound 6, Z-Leucine-Phenylalanine-Leucinal] (Cbz-Leu-Phe-Leu-aldehyde) | 69% | 6% | – | –
7 | 5.5 | 2.1 | CC(C)C[C@@H](C=O)NC(=O)[C@H](CC(C)C)NC(=O)[C@H](CC(C)C)NC(=O)c1cnccn1 [Compound 7] | 79% | −36% | – | –
8 | 0.020 | 0.007 | CC(C)C[C@H](NC(=O)OCc1ccccc1)C(=O)N[C@@H](CC(C)C)C(=O)N[C@H](C(=O)N[C@H](C=O)Cc1ccc(O)cc1)C(C)C [Compound 13] (Cbz-LLVY-aldehyde) | 68*** % | −29*** % | – | –
9 | 0.152 | 0.073 | CC(C)C[C@@H](C=O)NC(=O)[C@H](CC(C)C)NC(=O)[C@H](CC(C)C)NC(=O)Cc1ccc(F)cc1F [Compound 8] | 47% | −16% | – | –
10 | 1.750 | 0.195 | CC(C)C[C@@H](/C=N/NC(N)=O)NC(=O)[C@H](CC(C)C)NC(=O)[C@H](CC(C)C)NC(=O)OCc1ccccc1 [Compound 16] | 66% | 0% | – | –
